One block for each molecule: values may come before it.
Assays:
HDAC3 [1] = molecular target: T1, HDAC3 (Homo sapiens, UniProt O15379); assay: HDAC3 inhibition assay (details not given); format: biochemical
HDAC1 [2] = molecular target: T2, HDAC1 (Homo sapiens, UniProt Q13547); assay: HDAC1 inhibition assay (details not given); format: biochemical
HDAC1 [3] = molecular target: T2, HDAC1; assay: biochemical; parameters: HDAC inhibition assay, IC50; conditions: read-out: HDAC inhibition (HDAC1)
HDAC3 [4] = molecular target: T1, HDAC3; assay: biochemical; parameters: HDAC inhibition assay, IC50; conditions: read-out: HDAC inhibition (HDAC3)

T1 sequence (O15379 whole entry): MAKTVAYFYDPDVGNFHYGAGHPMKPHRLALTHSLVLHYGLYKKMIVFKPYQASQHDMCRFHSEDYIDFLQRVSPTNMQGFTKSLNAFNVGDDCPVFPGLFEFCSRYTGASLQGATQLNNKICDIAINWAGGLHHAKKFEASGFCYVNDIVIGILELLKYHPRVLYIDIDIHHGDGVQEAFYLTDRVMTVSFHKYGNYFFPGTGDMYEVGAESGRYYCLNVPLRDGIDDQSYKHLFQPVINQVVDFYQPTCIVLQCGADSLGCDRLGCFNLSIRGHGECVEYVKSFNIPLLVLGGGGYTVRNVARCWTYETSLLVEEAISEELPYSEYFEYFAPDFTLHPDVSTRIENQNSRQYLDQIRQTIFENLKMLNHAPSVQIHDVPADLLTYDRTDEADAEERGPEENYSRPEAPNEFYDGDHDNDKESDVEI
T2 sequence (Q13547 whole entry): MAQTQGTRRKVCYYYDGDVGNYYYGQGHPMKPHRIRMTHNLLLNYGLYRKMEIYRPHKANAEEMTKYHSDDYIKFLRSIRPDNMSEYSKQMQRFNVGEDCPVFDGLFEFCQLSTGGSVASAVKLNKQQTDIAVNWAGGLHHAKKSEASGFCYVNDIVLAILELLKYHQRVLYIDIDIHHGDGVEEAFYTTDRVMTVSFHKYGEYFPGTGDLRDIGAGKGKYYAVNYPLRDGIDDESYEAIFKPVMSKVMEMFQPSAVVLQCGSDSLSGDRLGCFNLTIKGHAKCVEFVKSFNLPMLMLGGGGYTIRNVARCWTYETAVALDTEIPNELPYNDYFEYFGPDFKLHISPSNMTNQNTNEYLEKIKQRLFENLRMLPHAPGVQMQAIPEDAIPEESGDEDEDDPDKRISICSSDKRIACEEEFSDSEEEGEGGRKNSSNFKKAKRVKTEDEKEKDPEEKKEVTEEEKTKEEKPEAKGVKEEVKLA

Structure (SMILES): Nc1ccccc1NC(=O)c1ccccc1 [NAPB]
IC50 (HDAC1 [3]): 8 µM
IC50 (HDAC3 [4]): 5 µM

Structure (SMILES): Cc1ccc(C(=O)Nc2ccccc2)cc1 [NPMB]
IC50 (HDAC1 [3]): > 100 µM
IC50 (HDAC3 [4]): > 100 µM

Structure (SMILES): Cc1ccc(NC(=O)c2ccccc2N)cc1 [NTAB]
IC50 (HDAC1 [3]): > 100 µM
IC50 (HDAC3 [4]): > 100 µM

Continued, values first:

IC50 (HDAC3 [1]): ~10 µM
IC50 (HDAC1 [2]): ~5 µM
Structure (SMILES): Cc1ccc(C(=O)Nc2ccccc2N)cc1 [#638, DSK638]

IC50 (HDAC1 [3]): 3 µM
IC50 (HDAC3 [4]): 3 µM
Structure (SMILES): Cc1ccc(C(=O)Nc2ccccc2O)cc1 [NHPMB]

From article PMC8837781, “Suppression of tumor metastasis by a RECK-activating small molecule” (Scientific Reports, 2022)
